In patent US9745551B2, “Mesenchymal-like stem cells derived from human embryonic stem cells, methods and uses thereof” (IMSTEM BIOTECHNOLOGY, INC., priority 2012, dated 2017):

Tested on: hES cells
Test: Embryoid body (EB) and hemangioblast formation from hESC cultured with BIO
Format: cell-based, human
Experimental: Four hESC cell lines were used: H9 (derived from WiCell Research Institute) (Thomson et al. (1998)); CT2 (derived from University of Connecticut Stem Cell Core (Lin et al. (2010)); MA09 (an FDA approved, clinical-grade cell line derived at Advanced Cell Technology, Inc.) (Klimanskaya et al. (2006)); and ES03-Envy (Envy, a GFP-labeled line, derived at ES International) (Costa et al. (2005)). These cell lines were cultured on Matrigel (BD Biosciences, San Jose, Calif.) and cultured in TeSR1 medium, (Stem Cell Technologies, Vancouver, Canada), with or without adding of 0.05-0.2 μM of BIO (6-Bromoindirubin-3′-oxime (CAS 667463-62-9)).
hESC cells were then differentiated into EB cells and then enriched for HB as previously described (Lu et al. (2008); Lu et al. (2007)). 50-80% confluent hEs cell on the Matrigel plate were digested with Dispase (1 mg/ml for 5 to 10 minutes) and then washed with EB formation basal medium, HPGM (Lonza, Walksville, Md.), or STEMLINE I/II Hematopoietic Stell Cell Expansion Medium (Sigma, St. Louis, Mo.), or StemSpan H3000 (Stem Cell Technologies, Vancouver, Canada), or IMDM with 10% FBS, or DMEDM/F12 with 10% FBS. Cells were then cultured in EB formation medium supplemented with 50 ng/ml of VEGF (Peprotech) and 50 ng/ml of BMP4 (Stemgent) for 48 hours on ultra-low plate at a density of about 2-3 million cells/ml. After 48 hours, half the culture medium was replaced with fresh EB formation medium plus 25-50 ng/ml of bFGF.
Four days later, EB cells formed in the medium were harvested and dissociated into single cells with TrypLE (Invitrogen) at 37° C. for 2-3 minutes. Cells were washed and resuspended at 1-5 million cells/ml in EB formation basal medium. The single cell suspension were then mixed at 1:10 with Hemangioblast Growth Medium (Stem Cell Technologies, Vancouver, Canada). […]

O=C1Nc2cc(Br)ccc2/C1=C1/Nc2ccccc2/C1=N\O [BIO, (2′Z,3′E)-6-Bromoindirubin-3′-oxime]
size and yield of the EB culture (BIO in the mTesr1 medium): increase | total EB number increase (BIO in the mTesr1 medium): 3 folds | percentage of CD45 cell differentiation (indicator of hemangioblast differentiation efficiency) (BIO treatment compared to traditional mTesr1 medium): tripled
